pKi: −log10 of the molar value.
How the values were obtained:
[1] = biological target: T1, TRKA-wt kinase domain (Homo sapiens, UniProt P04629); test: Biochemical kinase assay, TRKA-wt; details: 2 mM ATP substrate solution, read-out: Ki^app TRKA-wt
T1 construct: TRKA-wt (1 nM, BPS Bio, 40280) kinase domains in buffer; purchased BPS Bio 40280
Method: (§1) First, 250 nL of compound dissolved in DMSO (100-fold of the desired concentration) was dispensed into a 384-well plate. A 12.5 μL substrate solution containing ATP (2 mM) and fluorogenic phosphorylation substrate AQT0101 (26 μM for ALK and ROS1, AssayQuant) or AQT0104 (26 μM for TRKA, AssayQuant) in buffer (50 mM HEPES pH 7.5, 0.01% Brij-35, 0.5 mM EGTA, 10 mM MgCl2) was added and mixed thoroughly. Then, a 12.5 μL kinase solution containing ALK-wt (1.5 nM, Carna, 08-518), ALK ALK L1196M/G1202R (3 nM, SignalChem, A19-12NG), ROS1-wt (0.6 nM, Carna, 08-163), ROS1-G2032R (0.5 nM, SignalChem, R14-12BG), or TRKA-wt (1 nM, BPS Bio, 40280) kinase domains in buffer ([…] HEPES pH 7.5, 0.01% Brij-35, 2% glycerol, 0.4 mg/mL BSA, 0.5 mM EGTA, and 10 mM MgCl2) was added and mixed thoroughly. The plate was sealed and read by SpectraMax Paradigm at λ=485 nm every 2 minutes for 120 minutes at 30° C. Initial rates of reaction (v) were calculated from the change in fluorescence intensity over time during the initial, linear portion of the reaction. Finally, apparent inhibitory constants (Ki^app) were determined from regression of v and I (inhibitor concentration) to Morrison Equation (E=enzyme concentration): […]

[2] = biological target: T2, ROS1-G2032R kinase domain (Homo sapiens, UniProt P08922, G2032R); test: Biochemical kinase assay, ROS1-G2032R; details: 2 mM ATP substrate solution, read-out: Ki^app ROS1-G2032R
T2 construct: TRKA-wt (1 nM, BPS Bio, 40280) kinase domains in buffer; purchased SignalChem R14-12BG
Method: as §1

[3] = biological target: T3, ROS1-wt kinase domain (Homo sapiens, UniProt P08922); test: Biochemical kinase assay, ROS1-wt; details: 2 mM ATP substrate solution, read-out: Ki^app ROS1-wt
T3 construct: TRKA-wt (1 nM, BPS Bio, 40280) kinase domains in buffer; purchased Carna 08-163
Method: as §1

[4] = biological target: T4, ALK L1196M/G1202R kinase domain (Homo sapiens, UniProt Q9UM73, G1202R/L1196M); test: Biochemical kinase assay, ALK L1196M/G1202R; details: 2 mM ATP substrate solution, read-out: Ki^app ALK-L1196M-G1202R
T4 construct: TRKA-wt (1 nM, BPS Bio, 40280) kinase domains in buffer; purchased SignalChem A19-12NG
Method: as §1

[5] = biological target: T5, ALK-wt kinase domain (Homo sapiens, UniProt Q9UM73); test: Biochemical kinase assay, ALK-wt; details: 2 mM ATP substrate solution, read-out: Ki^app ALK-wt
T5 construct: TRKA-wt (1 nM, BPS Bio, 40280) kinase domains in buffer; purchased Carna 08-518
Method: as §1

Compound | pKi [1] | pKi [2] | pKi [3] | pKi [4] | pKi [5]
CCc1nnn2c1-c1cnc(N)c(c1)O[C@H](C)c1cc(F)ccc1-c1ncc(F)cc1C2 [Compound 16] | 6.30 to 7.30 | > 7.30 | > 7.30 | > 7.30 | > 7.30
C[C@H]1Oc2cc(cnc2N)-c2c(C(F)F)cnn2Cc2cc(F)cnc2-c2ccc(F)cc21 [Compound 17] | 6.30 to 7.30 | 6.30 to 7.30 | > 7.30 | 6.30 to 7.30 | > 7.30
CCn1ncc2c1-c1cnc(N)c(c1)O[C@H](C)c1cc(F)ccc1-c1nn(C)c(Cl)c1C2 [Compound 28] | > 7.30 | > 7.30 | > 7.30 | > 7.30 | > 7.30
CCn1ncc2c1-c1cnc(N)c(c1)O[C@H](C)c1cc(F)ccc1-c1nccn1C2 [Compound 31] | > 7.30 | > 7.30 | > 7.30 | > 7.30 | > 7.30
CCn1ncc2c1-c1cnc(N)c(c1)O[C@H](C)c1cc(F)ccc1-n1nccc1C2 [Compound 33] | > 7.30 | > 7.30 | > 7.30 | > 7.30 | > 7.30
CCn1ncc2c1-c1cnc(N)c(c1)OCc1cc(F)ccc1-c1nccn1C2 [Compound 34] | < 6.30 | 6.30 to 7.30 | > 7.30 | > 7.30 | > 7.30
CCn1ncc2c1-c1cnc(N)c(c1)OC(C)c1cc(F)ccc1-c1ccncc1C2 (stereo not drawn) [Compound 36] | 6.30 to 7.30 | > 7.30 | > 7.30 | > 7.30 | > 7.30
CC1Oc2cc(cnc2N)-c2c(cnn2C2CCC2)Cn2ccnc2-c2ccc(F)cc21 (stereo not drawn) [Compound 37] | 6.30 to 7.30 | > 7.30 | > 7.30 | > 7.30 | > 7.30
CCn1ncc2c1-c1cnc(N)c(c1)OC(C)c1cc(F)ccc1-n1cncc1C2 (stereo not drawn) [Compound 38] | < 6.30 | > 7.30 | > 7.30 | 6.30 to 7.30 | > 7.30
CC1Oc2cc(cnc2N)-c2c(cnn2CCF)Cn2ccnc2-c2ccc(F)cc21 (stereo not drawn) [Compound 39] | < 6.30 | > 7.30 | > 7.30 | 6.30 to 7.30 | > 7.30
CC1Oc2cc(cnc2N)-c2c(cnn2CC(F)F)Cn2ccnc2-c2ccc(F)cc21 (stereo not drawn) [Compound 40] | < 6.30 | > 7.30 | > 7.30 | 6.30 to 7.30 | > 7.30
CCn1ncc2c1-c1cnc(N)c(c1)OCc1cc(F)ccc1-n1nccc1C2 [Compound 41] | < 6.30 | > 7.30 | > 7.30 | > 7.30 | > 7.30
CCn1ncc2c1-c1cnc(N)c(c1)OC(C)c1cc(F)ccc1-c1ncncc1C2 (stereo not drawn) [Compound 42] | 6.30 to 7.30 | > 7.30 | > 7.30 | > 7.30 | > 7.30
CC1Oc2cc(cnc2N)-c2c(cnn2C(F)F)Cn2ccnc2-c2ccc(F)cc21 (stereo not drawn) [Compound 44] | 6.30 to 7.30 | > 7.30 | > 7.30 | 6.30 to 7.30 | > 7.30
CCn1ncc2c1-c1cnc(N)c(c1)O[C@H](C)c1cc(F)ccc1-c1nc(C)cn1C2 [Compound 45] | > 7.30 | > 7.30 | > 7.30 | > 7.30 | > 7.30
CCn1ncc2c1-c1cnc(N)c(c1)O[C@H](C)c1cc(F)ccc1-n1ncc(C#N)c1C2 [Compound 47] | 6.30 to 7.30 | > 7.30 | > 7.30 | 6.30 to 7.30 | > 7.30
CCn1ncc2c1-c1cnc(N)c(c1)OCc1cc(F)ccc1-n1ncc(F)c1C2 [Compound 48] | < 6.30 | > 7.30 | > 7.30 | > 7.30 | > 7.30
CCn1ncc2c1-c1cnc(N)c(c1)OCc1cc(F)ccc1-c1nn(C)cc1C2 [Compound 49] | < 6.30 | 6.30 to 7.30 | > 7.30 | 6.30 to 7.30 | > 7.30
CCn1ncc2c1-c1cnc(N)c(c1)O[C@H](C)c1cc(F)ccc1-n1nc(C(F)(F)F)cc1C2 [Compound 52] | 6.30 to 7.30 | > 7.30 | > 7.30 | > 7.30 | > 7.30
Cc1nn(CC2CC2)c2c1Cc1c(nn(C)c1Cl)-c1ccc(F)cc1[C@@H](C)Oc1cc-2cnc1N [Compound 54] | < 6.30 | > 7.30 | > 7.30 | > 7.30 | > 7.30

Second part, the compound after the results:

pKi [1] | pKi [2] | pKi [3] | pKi [4] | pKi [5] | Compound
< 6.30 | > 7.30 | > 7.30 | > 7.30 | > 7.30 | C[C@H]1Oc2cc(cnc2N)-c2c(C#N)noc2Cc2cn(C)nc2-c2ccc(F)cc21 [Compound 15]
< 6.30 | > 7.30 | > 7.30 | > 7.30 | > 7.30 | Cc1nc(C#N)c2n1Cc1cccnc1-c1ccc(F)cc1[C@@H](C)Oc1cc-2cnc1N [Compound 18]
> 7.30 | > 7.30 | > 7.30 | > 7.30 | > 7.30 | CCc1noc2c1-c1cnc(N)c(c1)O[C@H](C)c1cc(F)ccc1-c1nn(C)cc1C2 [Compound 19]
6.30 to 7.30 | > 7.30 | > 7.30 | > 7.30 | > 7.30 | CCn1nnc2c1-c1cnc(N)c(c1)O[C@H](C)c1cc(F)ccc1-c1nn(C)cc1C2 [Compound 20]
< 6.30 | > 7.30 | > 7.30 | > 7.30 | > 7.30 | C[C@H]1Oc2cc(cnc2N)-c2c(cnn2CC(F)F)Cc2cn(C)nc2-c2ccc(F)cc21 [Compound 22]
< 6.30 | 6.30 to 7.30 | > 7.30 | > 7.30 | > 7.30 | C[C@H]1Oc2cc(cnc2N)-c2c(C#N)nnn2Cc2cn(C)nc2-c2ccc(F)cc21 [Compound 24]
< 6.30 | 6.30 to 7.30 | > 7.30 | 6.30 to 7.30 | > 7.30 | C[C@H]1Oc2cc(cnc2N)-c2c(C#N)nnn2Cc2cccnc2-c2ccc(F)cc21 [Compound 25]
6.30 to 7.30 | > 7.30 | > 7.30 | > 7.30 | > 7.30 | C[C@H]1Oc2cc(cnc2N)-c2c(C3CCC3)noc2Cc2cn(C)nc2-c2ccc(F)cc21 [Compound 26]
< 6.30 | > 7.30 | > 7.30 | > 7.30 | > 7.30 | C[C@H]1Oc2cc(cnc2N)-c2c(cnn2CC(F)(F)F)Cc2cn(C)nc2-c2ccc(F)cc21 [Compound 27]
6.30 to 7.30 | > 7.30 | > 7.30 | > 7.30 | > 7.30 | C[C@H]1Oc2cc(cnc2N)-c2c(nnn2CC2CC2)Cc2cn(C)nc2-c2ccc(F)cc21 [Compound 29]
< 6.30 | 6.30 to 7.30 | > 7.30 | > 7.30 | > 7.30 | CCc1noc2c1-c1cnc(N)c(c1)OCc1cc(F)ccc1-c1nn(C)cc1C2 [Compound 30]
> 7.30 | > 7.30 | > 7.30 | > 7.30 | > 7.30 | CCc1ncn2c1-c1cnc(N)c(c1)O[C@H](C)c1cc(F)ccc1-c1nn(C)cc1C2 [Compound 50]
6.30 to 7.30 | > 7.30 | > 7.30 | > 7.30 | > 7.30 | Cc1nn(CC2CC2)c2c1Cc1cn(C)nc1-c1ccc(F)cc1[C@@H](C)Oc1cc-2cnc1N [Compound 53]
